From US20100204141A1, “USE OF BPP-B AS A THERAPEUTIC AGENT” (priority 2007, published 2010)
Square brackets hold non-standard residues; d marks the D form. Peptide text beside a SMILES is read from it. pGlu = O=C1CC[C@@H](C(=O)O)N1

System: drug-resistant Mycobacterium tuberculosis
Settings: 5 micrograms per ml

CC[C@H](C)[C@H](NC(=O)[C@H](CCCCN)NC(=O)[C@@H]1CCCN1C(=O)[C@H](CCCNC(=N)N)NC(=O)[C@@H]1CCCN1C(=O)[C@@H]1CCCN1C(=O)[C@H](CC(C)C)NC(=O)CNC(=O)[C@@H]1CCC(=O)N1)C(=O)N1CCC[C@H]1C(=O)N1CCC[C@H]1C(=O)O [Bradykinin potentiator B, Pyr-Gly-Leu-Pro-Pro-Arg-Pro-Lys-Ile-Pro-Pro-OH] ([pGlu]GLPPRPKIPP-OH)
% inhibition: 0.0%
